Patent publication US4970077A, “6-substituted-4-hydroxytetrahydropyran-2-one derivatives and pharmaceutical compositions containing them” (Boehringer Mannheim GmbH, priority 1988, dated 1990)

What was measured:
[1] = target: T1, HMG-CoA reductase (Rattus norvegicus, UniProt P51639); assay: Inhibition of HMG-CoA reductase in a microsome fraction from rat liver; format: biochemical; conditions: rat liver microsomes; for HMG-CoA-reductase Inhibition in %: concentration not given, method: 10^-4 M or 10^-5 M
T1 construct: microsomes from rat livers; from tissue; host or cells: liver of cholestyramine-treated rats (reversed day/night rhythm), microsome fraction
T1 sequence (P51639 1-887): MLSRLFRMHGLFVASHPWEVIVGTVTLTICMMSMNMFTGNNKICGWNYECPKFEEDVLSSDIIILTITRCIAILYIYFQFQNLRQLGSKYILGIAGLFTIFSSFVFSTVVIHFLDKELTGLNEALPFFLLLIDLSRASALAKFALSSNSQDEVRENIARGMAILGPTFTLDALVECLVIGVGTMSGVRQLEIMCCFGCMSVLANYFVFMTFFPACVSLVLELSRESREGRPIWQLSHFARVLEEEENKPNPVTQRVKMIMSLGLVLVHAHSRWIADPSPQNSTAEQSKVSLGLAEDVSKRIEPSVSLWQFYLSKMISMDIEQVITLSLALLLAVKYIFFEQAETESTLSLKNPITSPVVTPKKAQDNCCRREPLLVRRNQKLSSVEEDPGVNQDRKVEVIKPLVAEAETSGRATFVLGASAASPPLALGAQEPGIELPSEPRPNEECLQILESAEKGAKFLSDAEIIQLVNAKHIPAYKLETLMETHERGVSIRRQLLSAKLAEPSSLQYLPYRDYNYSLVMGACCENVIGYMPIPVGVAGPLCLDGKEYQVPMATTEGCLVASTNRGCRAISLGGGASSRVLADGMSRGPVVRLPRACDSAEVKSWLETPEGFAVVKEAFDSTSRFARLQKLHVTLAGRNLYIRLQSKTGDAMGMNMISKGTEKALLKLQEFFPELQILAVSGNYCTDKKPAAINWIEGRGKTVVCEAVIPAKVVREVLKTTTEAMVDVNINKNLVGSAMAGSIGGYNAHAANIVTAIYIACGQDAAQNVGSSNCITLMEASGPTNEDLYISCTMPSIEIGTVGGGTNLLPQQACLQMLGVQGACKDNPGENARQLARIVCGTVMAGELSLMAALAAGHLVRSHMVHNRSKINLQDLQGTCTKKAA
Excerpt: Inhibition of HMG-CoA reductase in a microsome fraction from rat liver
For the determination of the HMG-CoA reductase activity, microsomes from rat livers, which had been treated for 7 days in the case of reversed day/night rhythm with cholestyramine, were separated by centrifuging. The action of the test compounds at a concentration of 10^-4 M or 10^-5 M on the formation of mevalonate from (S,R) ^14 C--HMG--CoA was investigated. The experimental conditions are described in detail by J. Huber. S. Latzien and B. Hamprecht, Hoppe-Seylers Z. Physiol. Chem., 354, 1654/1973.

[2] = tested on: HMG-CoA reductase; conditions: literature: Endo 1976; Alberts 1980; cited from earlier work

SMILES | HMG-CoA-reductase Inhibition in % [1] [%] | competitive inhibition of HMG-CoA reductase (in words) [2] | further results
O=C1C[C@H](O)C[C@@H](/C=C/c2c(Cl)cc(Cl)cc2C2CCCCCC2)O1 (relative stereo) [2 (a)] | 95 | – | –
O=C1C[C@H](O)C[C@@H](/C=C/c2c(Cl)cccc2C2CCCCCC2)O1 (relative stereo) [2 (b)] | 93 | – | –
O=C1C[C@H](O)C[C@@H](/C=C/c2c(Cl)cc(Cl)cc2C2CCCCC2)O1 (relative stereo) [2 (c)] | 90 | – | –
O=C1C[C@H](O)C[C@@H](/C=C/c2ccccc2C2=CCCCC2)O1 (relative stereo) [2 (i)] | – | – | inhibition at 100 µM ([1]; 10^-4 M): 63%
CC[C@H](C)C(=O)O[C@H]1CCC=C2C=C[C@H](C)[C@H](CC[C@@H]3C[C@@H](O)CC(=O)O3)[C@H]21 [compactin A] | – | competitively to inhibit HMG-CoA reductase | –
CC[C@H](C)C(=O)O[C@H]1C[C@@H](C)C=C2C=C[C@H](C)[C@H](CC[C@@H]3C[C@@H](O)CC(=O)O3)[C@H]21 [mevinolin] | – | competitively to inhibit HMG-CoA reductase | –
